Test results from US20240415814A1, “PHARMACEUTICAL COMPOSITION COMPRISING 1-(3-CYANO-1-ISOPROPYL-INDOL-5-YL)PYRAZOLE-4-CARBOXYLIC ACID” (LG CHEM, LTD., priority 2021, published 2024).
Like-named read-outs stand apart in the source and are kept apart here.

Assays:
[1] = Phase 2 clinical trial: analysis of TEAEs; format: in vivo, human
Description: Selected patients gave written informed consent according to institutional and study procedures. After screening and wash-out processes (days 26 to 33 pre-dose), a total of 156 patients were finally enrolled, and each patient was randomly assigned to 5 groups of 50 mg, 100 mg and 200 mg dosing groups of the compound of Example 1, a placebo group, and a febuxostat group. Patients in each group self-administered 1 tablet of a combination drug (colchicine, 0.6 mg/day) for the prevention of gout flare along with the assigned investigational drug (50 mg, 100 mg and 200 mg doses of the compound of Example 1, placebo, and 40 mg of febuxostat group) orally, once every morning, at about the same time each day, with water, regardless of food.
When ULT is performed using a xanthine oxidase inhibitor compound, since there is a high possibility of gout flare as the tophi dissolves at the end of the bone during the initial treatment period, it was designed to be used in combination with colchicine for the purpose of inhibiting it. The drug was administered for 84 days by setting the first dosing day of the drug as day 1, and basic tests, serum uric acid concentration and the like were measured at clinic visits on 14 days (week 2), 28 days (week 4), 56 days (week 8), and 84 days (week 12) during the dosing period to determine whether TEAEs occurred. After the end of drug administration, a safety follow-up was performed for an additional 2 weeks (98 days, week 14).
Among all patient groups participating in the clinical trial, although the administration was stopped for 3 patients due to headache, gout flare in the left ankle, and liver dysfunction in the 100 mg dosing group of Example 1 and for 1 patient due to an increase in hepatic enzyme in the 200 mg dosing group, no significant treatment emergency adverse event (TEAE) was found in the remaining patient groups.

[2] = Pharmacokinetics according to renal function of patients; format: in vivo, human; conditions: for AUC(0-t) / AUC / Cmax: both sexes, human, plasma, oral, 200 mg, 200 mg once daily, Day 7, plasma; for AUC(0-t): read-out: AUC0-t (AUC0-48 h), geometric LS mean; for AUC: read-out: AUCtau, geometric LS mean; for Cmax: read-out: Cmax, ss, geometric LS mean
Description: PK and PD of the compound of Example 1 were assessed under patient groups with various degrees of renal function. […] A total of 37 patients were classified into 4 groups as follows based on renal function according to eGFR which was calculated by MDRD formula: • Normal: eGFR≥90 mL/min/1.73 m^2, n=13 • Mild (mild renal function impairment): eGFR 60-less than 90 mL/min/1.73 m^2, n=8 • Moderate (moderate renal function impairment): eGFR 30-less than 60 mL/min/1.73 m^2, n=8 • Severe (severe renal function impairment): eGFR<30 mL/min/1.73 m^2 and not on hemodialysis, n=8
Blood and urine samples were collected before dosing and up to 24 or 48 hours after the final dosing for PK/PD assessment.
For the compound of Example 1, statistical analysis of pharmacokinetic parameters using an ANOVA model for the pharmacokinetic population is shown in Table 2 below. The ANOVA model was fitted to the log-transformed PK parameters, with renal function impairment group fitted as a fixed effect. Point estimates and 90% CIs for differences between the least square means on the log scale were exponentiated to express the results as ratios of geometric means and CIs on the original scale.

[3] = normal renal function (control)

## CC(C)n1cc(C#N)c2cc(-n3cc(C(=O)O)cn3)ccc21 [Example 1, 1-(3-cyano-1-isopropyl-indol-5-yl)pyrazol-4-carboxylic acid]
[1]; 50 mg, 100 mg and 200 mg groups versus placebo and febuxostat groups
  incidence of TEAEs: showed no difference from the placebo group and the febuxostat group in the overall TEAE
[1]; 100 mg dosing group
  patients for whom administration was stopped (headache, gout flare in the left ankle, liver dysfunction): 3 patients
[1]; 200 mg dosing group
  patients for whom administration was stopped (increase in hepatic enzyme): 1 patient
[2]; Mild/Normal
  AUC0-t, ratio of geometric LS means: 1.23
  AUCtau, ratio of geometric LS means: 1.23
  Cmax, ss, ratio of geometric LS means: 1.32
[2]; Moderate/Normal
  AUC0-t, ratio of geometric LS means: 1.19
  AUCtau, ratio of geometric LS means: 1.17
  Cmax, ss, ratio of geometric LS means: 1.15
[2]; Severe/Normal
  AUC0-t, ratio of geometric LS means: 1.16
  AUCtau, ratio of geometric LS means: 1.26
  Cmax, ss, ratio of geometric LS means: 0.885
[2]; mild impairment
  AUC(0-t): 36500 ng·h/mL
  AUC: 38100 ng·h/mL
  Cmax: 7460 ng/mL
[2]; moderate impairment
  AUC(0-t): 35200 ng·h/mL
  AUC: 36100 ng·h/mL
  Cmax: 6490 ng/mL
[2]; [3]
  AUC(0-t): 29700 ng·h/mL
  AUC: 30900 ng·h/mL
  Cmax: 5640 ng/mL
[2]; severe impairment
  AUC(0-t): 34300 ng·h/mL
  AUC: 38900 ng·h/mL
  Cmax: 4990 ng/mL
